Earlier results on one compound are cited in patent US7407949B2, “Benzamide derivatives as oxytocin agonists and vasopressin antagonists” (priority 2003, dated 2008).

The target in the data set is T1, V1a vasopressin receptor (Homo sapiens, UniProt P37288).
T1 construct: host or cells: patients (in vivo clinical study)
To be noted: dysmenorrhea patients, compared to placebo.

T1 sequence (P37288 whole entry): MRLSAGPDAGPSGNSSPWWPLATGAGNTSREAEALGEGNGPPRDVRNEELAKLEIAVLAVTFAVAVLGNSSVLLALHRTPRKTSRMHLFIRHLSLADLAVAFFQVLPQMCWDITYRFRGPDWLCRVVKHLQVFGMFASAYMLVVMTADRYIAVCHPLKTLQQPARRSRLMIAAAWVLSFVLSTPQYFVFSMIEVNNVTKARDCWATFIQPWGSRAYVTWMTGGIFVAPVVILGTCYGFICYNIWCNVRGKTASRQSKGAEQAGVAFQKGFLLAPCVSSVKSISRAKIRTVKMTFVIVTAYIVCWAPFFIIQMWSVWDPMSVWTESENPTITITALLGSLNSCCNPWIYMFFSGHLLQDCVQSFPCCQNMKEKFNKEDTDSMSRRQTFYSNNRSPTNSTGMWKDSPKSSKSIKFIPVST

For `COc1ccc(S(=O)(=O)N2c3ccc(Cl)cc3[C@](O)(c3ccccc3Cl)[C@@H]2C(=O)N2CCC[C@H]2C(N)=O)cc1OC` [SR49059], the “amount of additional pain-killer taken” value is reported as “dose-related decrease in the amount of additional pain-killer taken” and the pain entry was “dose-related decrease in pain”.
